Key:
[1] = test system: rhabdomyosarcoma cells; conditions: low dosage; cited from earlier work
[2] = test system: injected tumors; conditions: mice with injected tumors; cited from earlier work
[3] = target: T1, SIRT1 (Homo sapiens, UniProt Q96EB6); assay: SIRT1 Fluorescent Activity Assay/Drug Discovery Kit AK-555; type: biochemical; conditions: capsules stored under ambient conditions
T1 sequence (Q96EB6 1-747): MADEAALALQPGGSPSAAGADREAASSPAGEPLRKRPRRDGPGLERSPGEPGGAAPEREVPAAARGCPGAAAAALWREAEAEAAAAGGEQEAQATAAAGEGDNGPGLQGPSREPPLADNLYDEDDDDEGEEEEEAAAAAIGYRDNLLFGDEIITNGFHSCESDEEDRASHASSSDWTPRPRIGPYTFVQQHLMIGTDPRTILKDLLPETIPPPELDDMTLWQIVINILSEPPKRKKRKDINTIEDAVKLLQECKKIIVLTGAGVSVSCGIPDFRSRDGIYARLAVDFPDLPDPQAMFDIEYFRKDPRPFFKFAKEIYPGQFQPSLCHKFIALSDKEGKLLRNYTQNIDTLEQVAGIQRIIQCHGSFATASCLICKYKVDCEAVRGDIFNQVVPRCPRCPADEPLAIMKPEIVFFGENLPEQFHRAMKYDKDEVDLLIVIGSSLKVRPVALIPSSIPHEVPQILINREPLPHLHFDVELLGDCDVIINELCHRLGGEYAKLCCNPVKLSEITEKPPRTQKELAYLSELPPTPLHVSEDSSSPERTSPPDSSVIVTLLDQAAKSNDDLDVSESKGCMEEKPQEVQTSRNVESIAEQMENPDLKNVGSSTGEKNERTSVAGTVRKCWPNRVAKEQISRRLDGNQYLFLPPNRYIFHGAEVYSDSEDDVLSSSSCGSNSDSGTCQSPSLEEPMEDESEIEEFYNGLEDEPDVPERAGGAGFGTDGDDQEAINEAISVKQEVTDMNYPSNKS

[4] = test system: breast cancer cells; conditions: cited from earlier work
[5] = test system: cancer risk; conditions: 1100 IU, 4-year period, women in Nebraska; cited from earlier work
[6] = test system: miR-20b; assay: miR-20b quantification in I/R heart, Taqman real-time PCR; type: in vivo, rat; conditions: I/R alone: down regulation […]; FIG. 17C
Source text: Animals. […] Male Sprague-Dawley rats weighing between 250 and 300 g were fed ad libitum regular rat chow with free access to water until the start of the experimental procedure.

[7] = test system: reactive oxygen species; assay: Intracellular ROS by CM-H2DCFDA fluorescence in I/R heart; type: in vivo, rat; conditions: IR heart, FIG. 19
Procedure: The dye was injected intravenously, prior to induction of ischemia/reperfusion, and at the end of the experiments, the level of fluorescence was determined for the generation of ROS by measuring the fluorescent oxidation product CM-DCF in the cytosol, at an excitation wavelength of 480 nm and an emission wavelength of 520 nm.

## O=P(O)(O)O[C@H]1[C@H](OP(=O)(O)O)[C@@H](OP(=O)(O)O)[C@H](OP(=O)(O)O)[C@@H](OP(=O)(O)O)[C@H]1OP(=O)(O)O [IP6, (2,3,4,5,6-pentaphosphonooxycyclohexyl)dihydrogen phosphate]
[1]
  suppression of growth of rhabdomyosarcoma cells: 50%
[2]
  tumor size, times smaller than non-treated mice: 50 times

## O=c1c(O)c(-c2ccc(O)c(O)c2)oc2cc(O)cc(O)c12 [quercetin]
[3]
  biological activity of encapsulated quercetin (ability to stimulate SIRT1 activity): maintained biological activity

## C=C1CC[C@H](O)C/C1=C/C=C1\CCC[C@]2(C)[C@@H]([C@H](C)CCCC(C)C)CC[C@@H]12 [vitamin D3, cholecalciferol]
[4]; higher concentrations of vitamin D3
  decline of number of breast cancer cells: about 25%
[4]; low-dose vitamin D3
  decline of breast tumor cell numbers: does not reduce
[5]
  reduction in cancer risk: 60-77%

## CC(C)=CCC/C(C)=C/CC/C(C)=C/CC[C@]1(C)CCc2cc(O)c(C)c(C)c2O1 [γ-tocotrienol]
[6]
  miR-20b expression in pretreated I/R hearts: 9.4 fold
[7]
  intracellular ROS concentration compared to control: lowered

Reference: patent publication US20140011889A1, “Resveratrol-Containing Compositions and Methods of Use for Cardiac-Related Diseases” (Resveratrol Partners, LLC, priority 2010, published 2014)
